Results from PubChem BioAssay (NCI).
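Cultured in 96-well plates, cells were exposed to test compound for 48 hours across five concentrations. GI50 marks 50% less growth. TGI denotes the concentration required for complete inhibition of growth.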

Legend:
Assay in all cases: NCI-60 cell line screen, 48 h
MCF7 breast = tested on: MCF7 breast
COLO 205 colon = tested on: COLO 205 colon
BT-549 breast = tested on: BT-549 breast
IGROV1 ovarian = tested on: IGROV1 ovarian
SR leukemia = tested on: SR leukemia
SK-MEL-5 melanoma = tested on: SK-MEL-5 melanoma
SNB-75 CNS = tested on: SNB-75 CNS
NCI-H460 lung = tested on: NCI-H460 lung
MDA-MB-435 = tested on: MDA-MB-435
NCI/ADR-RES ovarian = tested on: NCI/ADR-RES ovarian
A498 renal = tested on: A498 renal
NCI-H522 lung = tested on: NCI-H522 lung
MOLT-4 leukemia = tested on: MOLT-4 leukemia
UACC-62 melanoma = tested on: UACC-62 melanoma
EKVX NSCLC = tested on: EKVX NSCLC
SF-268 CNS = tested on: SF-268 CNS
K-562 leukemia = tested on: K-562 leukemia
CCRF-CEM leukemia = tested on: CCRF-CEM leukemia
HS 578T breast = tested on: HS 578T breast
UO-31 renal = tested on: UO-31 renal
SK-OV-3 ovarian = tested on: SK-OV-3 ovarian
HL-60(TB) leukemia = tested on: HL-60(TB) leukemia
NCI-H23 lung = tested on: NCI-H23 lung
LOX IMVI melanoma = tested on: LOX IMVI melanoma
OVCAR-4 ovarian = tested on: OVCAR-4 ovarian
ACHN renal = tested on: ACHN renal
M14 melanoma = tested on: M14 melanoma
SK-MEL-2 melanoma = tested on: SK-MEL-2 melanoma
CAKI-1 renal = tested on: CAKI-1 renal
OVCAR-3 ovarian = tested on: OVCAR-3 ovarian
MDA-MB-231 breast = tested on: MDA-MB-231 breast
NCI-H226 lung = tested on: NCI-H226 lung
HCC-2998 colon = tested on: HCC-2998 colon
DU-145 prostate = tested on: DU-145 prostate
SW-620 colon = tested on: SW-620 colon
HOP-92 NSCLC = tested on: HOP-92 NSCLC
HOP-62 NSCLC = tested on: HOP-62 NSCLC
HCT-15 colon = tested on: HCT-15 colon
U251 CNS = tested on: U251 CNS
SF-539 CNS = tested on: SF-539 CNS
TK-10 renal = tested on: TK-10 renal
PC-3 prostate = tested on: PC-3 prostate
HCT-116 colon = tested on: HCT-116 colon
SN12C renal = tested on: SN12C renal
OVCAR-5 ovarian = tested on: OVCAR-5 ovarian
786-0 renal = tested on: 786-0 renal
T-47D breast = tested on: T-47D breast
MALME-3M melanoma = tested on: MALME-3M melanoma
UACC-257 melanoma = tested on: UACC-257 melanoma
SF-295 CNS = tested on: SF-295 CNS
SK-MEL-28 melanoma = tested on: SK-MEL-28 melanoma
A549 NSCLC = tested on: A549 NSCLC
HT29 colon = tested on: HT29 colon
OVCAR-8 ovarian = tested on: OVCAR-8 ovarian
SNB-19 CNS = tested on: SNB-19 CNS
RPMI-8226 leukemia = tested on: RPMI-8226 leukemia
KM12 colon = tested on: KM12 colon
RXF 393 renal = tested on: RXF 393 renal

## CCN(CC)c1ccc(C(O)C2=CC(=O)c3ccccc3C2=O)cc1 (stereo not given)
MCF7 breast
  GI50: 1580 nM
  TGI: 6310 nM
COLO 205 colon
  GI50: 1580 nM
  TGI: 3590 nM
BT-549 breast
  GI50: 3070 nM
  TGI: 8220 nM
IGROV1 ovarian
  GI50: 1530 nM
  TGI: 3070 nM
SR leukemia
  GI50: 694 nM
  TGI: 5260 nM
SK-MEL-5 melanoma
  GI50: 914 nM
  TGI: 2880 nM
SNB-75 CNS
  GI50: 1870 nM
  TGI: 5570 nM
NCI-H460 lung
  GI50: 10800 nM
  TGI: > 32400 nM
MDA-MB-435
  GI50: 1580 nM
  TGI: 2990 nM
NCI/ADR-RES ovarian
  GI50: > 32900 nM
  TGI: > 100000 nM
A498 renal
  GI50: 2360 nM
  TGI: 8350 nM
NCI-H522 lung
  GI50: 1790 nM
  TGI: 4190 nM
MOLT-4 leukemia
  GI50: 440 nM
  TGI: > 100000 nM
UACC-62 melanoma
  GI50: 1650 nM
  TGI: 3340 nM
EKVX NSCLC
  GI50: 4010 nM
  TGI: 15700 nM
SF-268 CNS
  GI50: > 100000 nM
  TGI: > 100000 nM
K-562 leukemia
  GI50: 416 nM
CCRF-CEM leukemia
  GI50: 310 nM
HS 578T breast
  GI50: 1320 nM
  TGI: 5530 nM
UO-31 renal
  GI50: 2120 nM
  TGI: 6250 nM
SK-OV-3 ovarian
  GI50: 2660 nM
  TGI: 6820 nM
HL-60(TB) leukemia
  GI50: 7100 nM
  TGI: > 100000 nM
NCI-H23 lung
  GI50: 1330 nM
  TGI: 3020 nM
LOX IMVI melanoma
  GI50: 1140 nM
  TGI: 3660 nM
OVCAR-4 ovarian
  GI50: 1270 nM
  TGI: 3100 nM
ACHN renal
  GI50: 1750 nM
  TGI: 4600 nM
M14 melanoma
  GI50: 2100 nM
  TGI: 4570 nM
SK-MEL-2 melanoma
  GI50: 1570 nM
  TGI: 3710 nM
CAKI-1 renal
  GI50: 2310 nM
  TGI: 7400 nM
OVCAR-3 ovarian
  GI50: 1210 nM
  TGI: 2750 nM
MDA-MB-231 breast
  GI50: 1530 nM
  TGI: 4610 nM
NCI-H226 lung
  GI50: 1930 nM
  TGI: 4630 nM
HCC-2998 colon
  GI50: 1920 nM
  TGI: 3430 nM
DU-145 prostate
  GI50: 1850 nM
  TGI: 4270 nM
SW-620 colon
  GI50: 802 nM
  TGI: > 100000 nM
HOP-92 NSCLC
  GI50: 210 nM
  TGI: 942 nM
HOP-62 NSCLC
  GI50: 2030 nM
  TGI: 4330 nM
HCT-15 colon
  GI50: 3030 nM
  TGI: > 32100 nM
U251 CNS
  GI50: 1320 nM
  TGI: 7340 nM
SF-539 CNS
  GI50: 2000 nM
  TGI: 4180 nM
TK-10 renal
  GI50: 1510 nM
  TGI: 3160 nM
PC-3 prostate
  GI50: 156 nM
  TGI: 959 nM
HCT-116 colon
  GI50: 1760 nM
  TGI: 3140 nM
SN12C renal
  GI50: 1380 nM
  TGI: 4830 nM
OVCAR-5 ovarian
  GI50: 1940 nM
  TGI: 3660 nM
786-0 renal
  GI50: 1360 nM
  TGI: 2650 nM
T-47D breast
  GI50: 2690 nM
  TGI: > 100000 nM
MALME-3M melanoma
  GI50: 1590 nM
  TGI: 3130 nM
UACC-257 melanoma
  GI50: 1960 nM
  TGI: 5020 nM
SF-295 CNS
  GI50: 2230 nM
  TGI: 7450 nM
SK-MEL-28 melanoma
  GI50: 1210 nM
  TGI: 2600 nM
A549 NSCLC
  GI50: 4400 nM
  TGI: 30900 nM

## c1ccc(CN2COc3c(ccc4c3OCN(Cc3ccccc3)C4)C2)cc1
HT29 colon
  GI50: 955 nM
  TGI: > 100000 nM
MCF7 breast
  GI50: 515 nM
  TGI: > 100000 nM
COLO 205 colon
  GI50: 1960 nM
  TGI: > 42000 nM
BT-549 breast
  GI50: 2920 nM
  TGI: > 100000 nM
IGROV1 ovarian
  GI50: 802 nM
  TGI: > 100000 nM
SR leukemia
  GI50: 534 nM
  TGI: > 100000 nM
SK-MEL-5 melanoma
  GI50: 501 nM
  TGI: 2040 nM
SNB-75 CNS
  GI50: 2090 nM
  TGI: > 100000 nM
NCI-H460 lung
  GI50: 399 nM
  TGI: > 100000 nM
MDA-MB-435
  GI50: 1720 nM
  TGI: > 100000 nM
NCI/ADR-RES ovarian
  GI50: 256 nM
  TGI: > 100000 nM
A498 renal
  GI50: 1190 nM
  TGI: > 30300 nM
NCI-H522 lung
  GI50: 2050 nM
  TGI: > 100000 nM
MOLT-4 leukemia
  GI50: 409 nM
  TGI: > 100000 nM
UACC-62 melanoma
  GI50: 937 nM
  TGI: 4240 nM
SF-268 CNS
  GI50: 605 nM
  TGI: > 35600 nM
K-562 leukemia
  GI50: 445 nM
  TGI: > 100000 nM
CCRF-CEM leukemia
  GI50: 451 nM
  TGI: > 100000 nM
HS 578T breast
  GI50: 1910 nM
  TGI: > 100000 nM
UO-31 renal
  GI50: 122 nM
  TGI: 1410 nM
SK-OV-3 ovarian
  GI50: 639 nM
  TGI: > 100000 nM
HL-60(TB) leukemia
  GI50: 2330 nM
  TGI: 7520 nM
NCI-H23 lung
  GI50: 3680 nM
  TGI: > 100000 nM
LOX IMVI melanoma
  GI50: 825 nM
  TGI: > 100000 nM
OVCAR-4 ovarian
  GI50: 333 nM
  TGI: > 100000 nM
ACHN renal
  GI50: 316 nM
  TGI: > 100000 nM
M14 melanoma
  GI50: 490 nM
  TGI: > 100000 nM
SK-MEL-2 melanoma
  GI50: 3980 nM
  TGI: > 100000 nM
CAKI-1 renal
  GI50: 220 nM
OVCAR-3 ovarian
  GI50: 640 nM
  TGI: > 89800 nM
MDA-MB-231 breast
  GI50: 564 nM
  TGI: > 100000 nM
NCI-H226 lung
  GI50: 479 nM
  TGI: 5650 nM
HCC-2998 colon
  GI50: 1210 nM
  TGI: > 100000 nM
DU-145 prostate
  GI50: 569 nM
  TGI: > 100000 nM
SW-620 colon
  GI50: 494 nM
  TGI: > 100000 nM
HOP-92 NSCLC
  GI50: 1180 nM
  TGI: > 100000 nM
HOP-62 NSCLC
  GI50: 545 nM
  TGI: > 100000 nM
HCT-15 colon
  GI50: 90.6 nM
  TGI: > 100000 nM
U251 CNS
  GI50: 382 nM
  TGI: > 100000 nM
OVCAR-8 ovarian
  GI50: 391 nM
  TGI: > 100000 nM
SF-539 CNS
  GI50: 1450 nM
  TGI: 6410 nM
TK-10 renal
  GI50: 464 nM
  TGI: > 100000 nM
PC-3 prostate
  GI50: 579 nM
  TGI: > 100000 nM
SNB-19 CNS
  GI50: 1000 nM
  TGI: > 100000 nM
RPMI-8226 leukemia
  GI50: 1410 nM
  TGI: > 100000 nM
KM12 colon
  GI50: 621 nM
  TGI: > 100000 nM
HCT-116 colon
  GI50: 535 nM
  TGI: > 100000 nM
SN12C renal
  GI50: 559 nM
  TGI: > 100000 nM
OVCAR-5 ovarian
  GI50: 857 nM
  TGI: > 100000 nM
RXF 393 renal
  GI50: 410 nM
  TGI: > 100000 nM
786-0 renal
  GI50: 809 nM
  TGI: > 100000 nM
T-47D breast
  GI50: 960 nM
  TGI: > 100000 nM
MALME-3M melanoma
  GI50: 3060 nM
  TGI: > 100000 nM
UACC-257 melanoma
  GI50: 763 nM
  TGI: 6530 nM
SF-295 CNS
  GI50: 554 nM
  TGI: > 100000 nM
SK-MEL-28 melanoma
  GI50: 1260 nM
  TGI: > 100000 nM
A549 NSCLC
  GI50: 477 nM
  TGI: > 100000 nM
